Data reported in ChEMBL document CHEMBL4385608, “5-Aryl-1,3,4-oxadiazol-2-ylthioalkanoic Acids: A Highly Potent New Class of Inhibitors of Rho/Myocardin-Related Transcription Factor (MRTF)/Serum Response Factor (SRF)-Mediated Gene Transcription as Potential Antifibrotic Agents for Scleroderma” (J Med Chem, 2019).
≈ marks a conversion by molar mass, not a printed value. Calls of active or inactive are those of the source. The calls are words filed in the database; no cut-off is given here.

Assays:
[1] = Inhibition of Rho/MRTF/SRF pathway (unknown origin) expressed in human PC3 cells assessed as reduction in Galpha12 Q231L-stimulated MRTF-selective SRE.L promoter-driven luciferase activity after overnight incubation by luminescence assay; type: cell-based
[2] = test system: PC-3; experiment: Cytotoxicity against human PC3 cells assessed as reduction in cell viability up to 100 uM by WST-1 assay relative to control; type: cell-based
[3] = test system: HEK-293T; experiment: Cytotoxicity against HEK293T cells assessed as reduction in cell viability up to 100 uM by WST-1 assay relative to control; type: cell-based; conditions: human
[4] = Inhibition of Rho/MRTF/SRF pathway (unknown origin) expressed in HEK293T cells assessed as reduction in Galpha12-stimulated MRTF-selective SRE.L promoter-driven luciferase activity after overnight incubation by luminescence assay; type: cell-based, Homo sapiens
[5] = Half-life in CD-1 mouse liver microsomes at 1 uM in presence of NADPH by LC-MS/MS analysis; type: ADME, Microsome
[6] = species: Homo sapiens; experiment: Inhibition of Rho/MRTF/SRF pathway in human primary dermal fibroblasts assessed as reduction in LPA-stimulated CTGF mRNA expression by measuring CTGF mRNA level at 10^-6 M preincubated for 72 hrs followed by LPA stimulation and measured after 1 hr by qPCR analysis relative to control; parameters: scale not given: the % may be the effect or the level left
[7] = test system: PC-3; experiment: Cytotoxicity against human PC3 cells assessed as reduction in cell viability by CellTiter-Fluor assay; type: cell-based
[8] = species: Homo sapiens; experiment: Inhibition of Rho/MRTF/SRF pathway (unknown origin) expressed in human PC3 cells assessed as reduction in Galpha12 Q231L-stimulated MRTF-selective SRE.L promoter-driven luciferase activity up to 100 uM after overnight incubation by luminescence assay; type: cell-based
[9] = test system: PC-3; experiment: Cytotoxicity against human PC3 cells assessed as reduction in cell viability up to 100 uM by CellTiter-Fluor assay; type: cell-based
[10] = Cmax in CD-1 mouse at 10 mg/kg, po by LC-MS/MS analysis; type: ADME, organism-based; parameters: dose 10 mg/kg, route oral; conditions: in vivo
[11] = Equilibrium solubility of the compound in phosphate buffer saline; type: physicochemical
[12] = species: Homo sapiens; experiment: Inhibition of Rho/MRTF/SRF pathway in human primary dermal fibroblasts assessed as reduction in LPA-stimulated CTGF mRNA expression preincubated for 48 hrs followed by LPA stimulation and measured after 1 hr by qPCR analysis
[13] = AUC in CD-1 mouse at 10 mg/kg, po by LC-MS/MS analysis; type: ADME, organism-based; conditions: in vivo
[14] = Oral bioavailability in CD-1 mouse at 30 mg/kg by LC-MS/MS analysis; type: ADME, organism-based; conditions: in vivo
[15] = Half-life in CD-1 mouse at 3 mg/kg, po by LC-MS/MS analysis; type: ADME, organism-based; conditions: in vivo
[16] = AUC in CD-1 mouse at 3 mg/kg, po by LC-MS/MS analysis; type: ADME, organism-based; conditions: in vivo
[17] = test system: Mus musculus; experiment: Antifibrotic activity in bleomycin-induced C57BL/6 mouse model of dermal fibrosis assessed as decrease in hydroxyproline content at 3 to 10 mg/kg, po administered via gavage for 14 days measured post-last dose; type: functional, organism-based
[18] = Oral bioavailability in CD-1 mouse at 3 mg/kg by LC-MS/MS analysis; type: ADME, organism-based; conditions: in vivo
[19] = Oral bioavailability in CD-1 mouse at 10 mg/kg by LC-MS/MS analysis; type: ADME, organism-based; conditions: in vivo
[20] = Clearance in CD-1 mouse at 3 mg/kg, iv by LC-MS/MS analysis; type: ADME, organism-based; conditions: in vivo
[21] = Cmax in CD-1 mouse at 3 mg/kg, po by LC-MS/MS analysis; type: ADME, organism-based; parameters: dose 3 mg/kg, route oral; conditions: in vivo
[22] = Cmax in CD-1 mouse at 30 mg/kg, po by LC-MS/MS analysis; type: ADME, organism-based; parameters: dose 30 mg/kg, route oral; conditions: in vivo
[23] = Half-life in CD-1 mouse at 3 mg/kg, iv by LC-MS/MS analysis; type: ADME, organism-based; conditions: in vivo
[24] = AUC in CD-1 mouse at 30 mg/kg, po by LC-MS/MS analysis; type: ADME, organism-based; conditions: in vivo
[25] = species: Homo sapiens; experiment: Inhibition of Rho/MRTF/SRF pathway in human primary dermal fibroblasts assessed as reduction in LPA-stimulated CTGF mRNA expression preincubated for 72 hrs followed by LPA stimulation and measured after 1 hr by qPCR analysis
[26] = Half-life in CD-1 mouse at 30 mg/kg, po by LC-MS/MS analysis; type: ADME, organism-based; conditions: in vivo
[27] = Cmax in CD-1 mouse at 3 mg/kg, iv by LC-MS/MS analysis; type: ADME, organism-based; parameters: dose 3 mg/kg, route intravenous; conditions: in vivo
[28] = test system: Mus musculus; experiment: Antifibrotic activity in bleomycin-induced C57BL/6 mouse model of dermal fibrosis assessed as decrease in dermal thickness at 3 to 10 mg/kg, po administered via gavage for 14 days measured post-last dose by Masson's trichrome-staining based microscopic method; type: functional, organism-based
[29] = Half-life in CD-1 mouse at 10 mg/kg, po by LC-MS/MS analysis; type: ADME, organism-based; conditions: in vivo
[30] = AUC in CD-1 mouse at 3 mg/kg, iv by LC-MS/MS analysis; type: ADME, organism-based; conditions: in vivo
[31] = Cmax in CD-1 mouse at 10 mg/kg, iv by LC-MS/MS analysis; type: ADME, organism-based; parameters: dose 10 mg/kg, route intravenous; conditions: in vivo
[32] = Oral bioavailability in CD-1 mouse at 20 mg/kg by LC-MS/MS analysis; type: ADME, organism-based; conditions: in vivo
[33] = AUC in CD-1 mouse at 10 mg/kg, iv by LC-MS/MS analysis; type: ADME, organism-based; conditions: in vivo
[34] = Half-life in CD-1 mouse at 20 mg/kg, po by LC-MS/MS analysis; type: ADME, organism-based; conditions: in vivo
[35] = Thermodynamic solubility of the compound; type: physicochemical; conditions: read-out: Therm_solubility
[36] = Clearance in CD-1 mouse at 10 mg/kg, iv by LC-MS/MS analysis; type: ADME, organism-based; conditions: in vivo
[37] = AUC in CD-1 mouse at 20 mg/kg, po by LC-MS/MS analysis; type: ADME, organism-based; conditions: in vivo
[38] = Cmax in CD-1 mouse at 20 mg/kg, po by LC-MS/MS analysis; type: ADME, organism-based; parameters: dose 20 mg/kg, route oral; conditions: in vivo
[39] = Half-life in CD-1 mouse at 10 mg/kg, iv by LC-MS/MS analysis; type: ADME, organism-based; conditions: in vivo

SMILES: O=C(O)CCSc1nnc(-c2ccc(Cl)cc2)o1
- IC50 [1]: 340 nM
- Activity [2]: < 5%

SMILES: O=C(O)CCSc1nnc(-c2ccncc2)o1
- IC50 [1]: > 100000 nM

SMILES: CNC(=O)CCSc1nnc(-c2ccc(Cl)cc2Cl)o1
- Activity [2]: < 5%

SMILES: COc1cccc(-c2nnc(SCCC(=O)O)o2)c1
- IC50 [1]: 3600 nM
- Activity [2]: < 5%

SMILES: O=C(O)CCCSc1nnc(-c2ccc(C(F)(F)F)cc2Cl)o1
- Activity [3]: < 5%
- IC50 [4]: 0.06 nM
- t1/2 [5]: > 1 h

SMILES: COC(=O)c1ccc2c(c1)NC(=O)/C2=C(\Nc1ccc(N(C)C(=O)CN2CCN(C)CC2)cc1)c1ccccc1 [NINTEDANIB]
- IC50 [1]: 1300 nM
- Activity [6]: 45%
- IC50 [7]: < 30000 nM

SMILES: CCc1ccc(-c2nnc(SCCCC(=O)O)o2)c(Cl)c1
- Activity [3]: < 5%
- IC50 [4]: 0.0007 nM

SMILES: Cc1ccc(=O)n(-c2ccccc2)c1 [PIRFENIDONE]
- Activity [6]: 91%
- inhibition [8]: inactive
- Activity [9]: Toxic

SMILES: O=C(O)CCCSc1nnc(-c2cccc(C3CC3)c2Cl)o1
- Activity [3]: < 5%
- IC50 [4]: 0.019 nM

SMILES: O=C(O)CCCSc1nnc(-c2ccc(C3CC3)cc2Cl)o1
- Activity [3]: < 5%
- IC50 [1]: 0.001 nM
- Cmax [10]: 1430 ng/mL
- solubility thermodynamic [11]: > 1000 µM
- inhibition [12]: inactive
- Activity [2]: < 5%
- AUC [13]: 1830 ng·h/mL
- bioavailability [14]: 29%
- IC50 [4]: 0.001 nM
- t1/2 [5]: 0.783 h
- half-life [15]: 1.6 h
- AUC [16]: 361 ng·h/mL
- Activity [17]: Active
- bioavailability [18]: 11%
- bioavailability [19]: 17%
- clearance [20]: 15.4 mL/min/kg
- Cmax [21]: 397 ng/mL
- Cmax [22]: 10100 ng/mL
- half-life [23]: 1.7 h
- AUC [24]: 9500 ng·h/mL
- inhibition [25]: Dose-dependent effect
- half-life [26]: 2.2 h
- Cmax [27]: 8140 ng/mL
- Activity [28]: Active
- half-life [29]: 1.8 h
- AUC [30]: 3260 ng·h/mL

SMILES: O=C(O)CCSc1nnc(-c2cccnc2)o1
- IC50 [1]: 87000 nM

SMILES: O=C(O)CCCSc1nnc(-c2ccc(C(F)(F)F)cc2)o1
- Activity [3]: < 5%
- IC50 [4]: 46 nM

SMILES: O=C(O)CCCSc1nnc(-c2ccc(OC3COC3)cc2Cl)o1
- Activity [3]: < 5%
- IC50 [4]: 370 nM

SMILES: Cc1occc1-c1nnc(SCCC(=O)O)o1
- IC50 [1]: > 100000 nM

SMILES: O=C(O)CCCSc1nnc(-c2ccc(Cl)cc2Cl)o1
- Activity [3]: < 5%
- IC50 [1]: 1.8 nM
- Cmax [31]: 35600 ng/mL
- Activity [2]: < 5%
- bioavailability [32]: 52%
- IC50 [4]: 0.84 nM
- t1/2 [5]: > 1 h
- AUC [33]: 10700 ng·h/mL
- half-life [34]: 1.2 h
- solubility thermodynamic [35]: 841 µM (≈ 280 µg/mL)
- clearance [36]: 15.5 mL/min/kg
- AUC [37]: 11100 ng·h/mL
- Cmax [38]: 23200 ng/mL
- half-life [39]: 1.4 h

SMILES: CCOC(=O)CCSc1nnc(-c2ccc(Cl)cc2Cl)o1
- IC50 [1]: 2.6 nM
- Activity [2]: < 5%

SMILES: Cc1ccc(-c2nnc(SCCC(=O)O)o2)c(Cl)c1
- IC50 [1]: 1.5 nM
- Activity [2]: < 5%

SMILES: O=C(O)CSCc1nnc(-c2ccc(Cl)cc2Cl)o1
- IC50 [4]: 11500 nM

SMILES: COc1ccc(-c2nnc(SCCC(=O)O)o2)cc1
- IC50 [1]: 160 nM
- Activity [2]: < 5%

SMILES: O=C(O)CCCSc1nnc(-c2cc(C3CC3)ccc2Cl)o1
- Activity [3]: < 5%
- IC50 [4]: 20 nM

SMILES: Cc1ccc(-c2nnc(SCCCC(=O)O)o2)c(Cl)c1
- IC50 [1]: 0.1 nM
- Activity [2]: < 5%
- t1/2 [5]: 0.467 h

SMILES: Cc1ccccc1-c1nnc(SCCC(=O)O)o1
- IC50 [1]: 6300 nM
- Activity [2]: < 5%

SMILES: O=C(O)CCSc1nc2ccccc2n1Cc1ccccc1
- IC50 [1]: > 100000 nM

SMILES: O=C(O)CCCSc1nnc(-c2ccc(Br)cc2Cl)o1
- Activity [3]: < 5%
- IC50 [4]: 0.07 nM

SMILES: O=C(O)CCCS(=O)(=O)c1nnc(-c2ccc(Cl)cc2Cl)o1
- IC50 [4]: > 100000 nM
